# Patent US9155795B2, “CXCR4 receptor compounds” (Anchor Therapeutics, Inc., priority 2010, dated 2015)
# Where a SMILES comes first, the peptide text is derived from it. [ ]: non-standard residue; d: D form. The star is where a group is joined. 2Nal = N[C@@H](Cc1ccc2ccccc2c1)C(=O)O; Palmitoyl = CCCCCCCCCCCCCCCC(=O)*; Hyp = O=C(O)[C@@H]1C[C@@H](O)CN1; X1 = CCCCCCCCCCCCOCCC(=O)*; Nle = CCCC[C@H](N)C(=O)O
# Molecular target: T1, CXCR4 (Homo sapiens, UniProt P61073)
# T1 construct: CCRF-CEM cells, a human T-cell ALL line that endogenously expresses CXCR4; endogenous in cells; host or cells: CCRF-CEM (human T-cell acute lymphoblastic leukemia line)
# T1 sequence (P61073 whole entry): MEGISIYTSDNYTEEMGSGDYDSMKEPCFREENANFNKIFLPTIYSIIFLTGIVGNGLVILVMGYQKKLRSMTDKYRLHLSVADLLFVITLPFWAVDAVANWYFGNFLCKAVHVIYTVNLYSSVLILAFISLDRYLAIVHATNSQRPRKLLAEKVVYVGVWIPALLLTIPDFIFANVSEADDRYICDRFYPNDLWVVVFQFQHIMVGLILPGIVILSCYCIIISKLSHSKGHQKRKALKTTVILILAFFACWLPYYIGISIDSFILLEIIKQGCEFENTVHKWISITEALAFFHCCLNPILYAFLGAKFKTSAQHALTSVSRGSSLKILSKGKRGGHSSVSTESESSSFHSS
# Test: Calcium flux assay, agonist mode, Flexstation (CCRF-CEM cells)
# Format: cell-based
# Conditions: CCRF-CEM, percent of maximum response compared with SDF-1α, read-out: % Intrinsic Activity
# From the text: Calcium Flux Assay is one of the most popular cell-based GPCR functional assays. It most often uses calcium sensing fluorescent dyes such as fura2 AM, fluo-4 and Calcium-4 to measure changes in intracellular calcium concentration. It is used mainly to detect GPCR signaling via Gαq subunit. Activation of these Gq-coupled GPCRs leads to activation of phospholipase C, which subsequently leads to increase in inositol phosphate production. IP3 receptors on endoplasmic reticulum sense the change then release calcium into cytoplasm. Intracellular calcium binding to the fluorescent dyes can be detected by instruments that quantify fluorescent intensities, such as FLIPR Tetra, Flexstation (MDS) and FDSS (Hamamatsu). In addition, to assess Gq-couple receptor signaling, a calcium flux assay can also be used to study Gs and Gi couple receptors by co-expressing CNG (cyclic nucleotide gated calcium channel) or chimeric G-proteins (Gqi5, Gsi5 for example). Activation of some Gi-coupled receptors can also be detected by calcium flux assay via Gβγ mediated phospholipase C activation.
# The calcium flux assay was used to assess the test compounds' ability to activate the CXCR4 receptor in CCRF-CEM cells (human T lymphoblasts from acute lymphoblastic leukemia). […] After dye loading by incubating with Calcium-4 dye at 37° C. for 1 hour, cell plates were read at 37° C. using the using the Flexstation 3 workstation. Receptor activation was assessed by measuring changes in fluorescent intensity after the addition of the test compounds or the reference agonist SDF-1α on the using the Flexstation 3 workstation. EC50
# and percent intrinsic actively were derived from the data collected. Intrinsic activity refers to the efficacy of the test compound and is calculated as the percent of maximum response compared with the response of the reference standard (i.e., natural agonist, SDF-1α).
row,Emax,SMILES
1,81.5%,CCCCCCCCCCCCCCCC(=O)N[C@@H](CCSC)C(=O)NCC(=O)N[C@@H](Cc1ccc(O)cc1)C(=O)N[C@@H](CCC(N)=O)C(=O)N[C@@H](CCCCN)C(=O)N[C@@H](CCCCN)C(=O)N[C@@H](CC(C)C)C(=O)N[C@@H](CCCNC(=N)N)C(=O)N[C@@H](CO)C(=O)N[C@@H](CCSC)C(=O)N[C@H](C(=O)N[C@@H](CC(=O)O)C(=O)N[C@@H](CCCCN)C(=O)N[C@@H](Cc1ccccc1)C(=O)N[C@@H](CCCNC(=N)N)C(=O)N[C@@H](CC(C)C)C(N)=O)[C@@H](C)O [Compound 15] (Palmitoyl-MGYQKKLRSMTDKFRL-NH2; C-terminus assumed)
2,61.4%,CCCCCCCCCCCCCCCC(=O)N[C@@H](CCSC)C(=O)NCC(=O)N[C@@H](Cc1ccc(O)cc1)C(=O)N[C@@H](CCC(N)=O)C(=O)N[C@@H](CCCCN)C(=O)N[C@@H](CCCCN)C(=O)N[C@@H](CC(C)C)C(=O)N[C@@H](CCCNC(=N)N)C(=O)N[C@@H](CO)C(=O)N[C@@H](CCSC)C(=O)N[C@H](C(=O)N[C@@H](CC(=O)O)C(=O)N[C@@H](CCCCN)C(=O)N[C@@H](Cc1ccc(O)cc1)C(=O)N[C@@H](CCCCN)C(=O)N[C@@H](CC(C)C)C(N)=O)[C@@H](C)O [Compound 13] (Palmitoyl-MGYQKKLRSMTDKYKL-NH2; C-terminus assumed)
3,73.2%,CCCCCCCCCCCCCCCC(=O)N[C@@H](CCSC)C(=O)NCC(=O)N[C@@H](Cc1ccc(O)cc1)C(=O)N[C@@H](CCC(N)=O)C(=O)N[C@@H](CCCCN)C(=O)N[C@@H](CCCCN)C(=O)N[C@@H](CC(C)C)C(=O)N[C@@H](CCCNC(=N)N)C(=O)N[C@@H](CO)C(=O)N[C@@H](CCSC)C(=O)N[C@H](C(=O)N[C@@H](CC(=O)O)C(=O)N[C@@H](CCCCN)C(=O)N[C@@H](Cc1ccc(O)cc1)C(=O)N[C@@H](CCCNC(=N)N)C(=O)N[C@@H](CCCC)C(N)=O)[C@@H](C)O [Compound 12] (Palmitoyl-MGYQKKLRSMTDKYR[Nle]-NH2; C-terminus assumed)
4,34.4%,CCCCCCCCCCCCCCCC(=O)N[C@@H](CCSC)C(=O)NCC(=O)N[C@@H](Cc1ccc(O)cc1)C(=O)N[C@@H](CCC(N)=O)C(=O)N[C@@H](CCCCN)C(=O)N[C@@H](CCCCN)C(=O)N[C@@H](CC(C)C)C(=O)N[C@@H](CCCNC(=N)N)C(=O)N[C@@H](CO)C(=O)N[C@@H](CCSC)C(=O)N[C@H](C(=O)N[C@@H](CC(=O)O)C(=O)N[C@@H](CCCCN)C(=O)N[C@@H](Cc1ccc2ccccc2c1)C(=O)N[C@@H](CCCNC(=N)N)C(=O)N[C@@H](CC(C)C)C(N)=O)[C@@H](C)O [Compound 16] (Palmitoyl-MGYQKKLRSMTDK[2Nal]RL-NH2; C-terminus assumed)

# The next lines start with the compound.
row,SMILES,Emax
1,CCCCCCCCCCCCCCCC(=O)N[C@@H](CCSC)C(=O)NCC(=O)N[C@@H](Cc1ccc(O)cc1)C(=O)N[C@@H](CCC(N)=O)C(=O)N[C@@H](CCCCN)C(=O)N[C@@H](CCCCN)C(=O)N[C@@H](CC(C)C)C(=O)N[C@@H](CCCNC(=N)N)C(=O)N[C@@H](CO)C(=O)N1CCC[C@@H]1C(=O)N[C@@H](CCSC)C(=O)N[C@H](C(=O)N[C@@H](CC(=O)O)C(=O)N[C@@H](CCCCN)C(=O)N[C@@H](Cc1ccc(O)cc1)C(=O)N[C@@H](CCCNC(=N)N)C(=O)N[C@@H](CC(C)C)C(N)=O)[C@@H](C)O [Compound 9] (Palmitoyl-MGYQKKLRS[dP]MTDKYRL-NH2; C-terminus assumed),77.9%
2,CCCCCCCCCCCCCCCC(=O)NCC(=O)NCC(=O)N[C@@H](Cc1ccc(O)cc1)C(=O)N[C@@H](CCC(N)=O)C(=O)N[C@@H](CCCCN)C(=O)N[C@@H](CCCCN)C(=O)N[C@@H](CC(C)C)C(=O)N[C@@H](CCCNC(=N)N)C(=O)N1CCC[C@@H]1C(=O)N[C@@H](Cc1c[nH]c2ccccc12)C(=O)N[C@H](C(=O)N[C@@H](CC(=O)O)C(=O)N[C@@H](CCCCN)C(=O)N[C@@H](Cc1ccc(O)cc1)C(=O)N[C@@H](CCCNC(=N)N)C(=O)N[C@@H](CC(C)C)C(N)=O)[C@@H](C)O [Compound 33] (Palmitoyl-GGYQKKLR[dP]WTDKYRL-NH2; C-terminus assumed),93%
3,CCCCCCCCCCCCCCCC(=O)N[C@@H](CCSC)C(=O)NCC(=O)N[C@@H](Cc1ccc(O)cc1)C(=O)N[C@@H](CCC(N)=O)C(=O)N[C@@H](CCCCN)C(=O)N[C@@H](CCCCN)C(=O)N[C@@H](CC(C)C)C(=O)N[C@@H](CCCNC(=N)N)C(=O)N1CCC[C@H]1C(=O)N[C@@H](CO)C(=O)N[C@@H](CCSC)C(=O)N[C@H](C(=O)N[C@@H](CC(=O)O)C(=O)N[C@@H](CCCCN)C(=O)N[C@@H](Cc1ccc(O)cc1)C(=O)N[C@@H](CCCNC(=N)N)C(=O)N[C@@H](CC(C)C)C(N)=O)[C@@H](C)O [Compound 8] (Palmitoyl-MGYQKKLRPSMTDKYRL-NH2; C-terminus assumed),88%
4,CCCCCCCCCCCCCCCC(=O)N[C@@H](CS)C(=O)NCC(=O)N[C@@H](Cc1ccc(O)cc1)C(=O)N[C@@H](CCC(N)=O)C(=O)N[C@@H](CCCCN)C(=O)N[C@@H](CCCCN)C(=O)N[C@@H](CC(C)C)C(=O)N[C@@H](CCCNC(=N)N)C(=O)N[C@@H](CO)C(=O)N[C@@H](C)C(=O)N[C@H](C(=O)N[C@@H](CC(=O)O)C(=O)N[C@@H](CCCCN)C(=O)N[C@@H](Cc1ccc(O)cc1)C(=O)N[C@@H](CCCNC(=N)N)C(=O)N[C@@H](CC(C)C)C(N)=O)[C@@H](C)O [Compound 30] (Palmitoyl-CGYQKKLRSATDKYRL-NH2; C-terminus assumed),95.3%
5,CCCCCCCCCCCCOCCC(=O)NCC(=O)NCC(=O)N[C@@H](Cc1ccc(O)cc1)C(=O)N[C@@H](CCC(N)=O)C(=O)N[C@@H](CCCCN)C(=O)N[C@@H](CCCCN)C(=O)N[C@@H](CC(C)C)C(=O)N[C@@H](CCCNC(=N)N)C(=O)N[C@@H](CO)C(=O)N[C@@H](C)C(=O)N[C@H](C(=O)N[C@@H](CC(=O)O)C(=O)N[C@@H](CCCCN)C(=O)N[C@@H](Cc1ccc(O)cc1)C(=O)N[C@@H](CCCNC(=N)N)C(=O)N[C@@H](CC(C)C)C(N)=O)[C@@H](C)O [Compound 31] (X1-GGYQKKLRSATDKYRL-NH2; C-terminus assumed),84.2%
6,CCCCCCCCCCCCCCCC(=O)NCC(=O)NCC(=O)N[C@@H](Cc1ccc(O)cc1)C(=O)N[C@@H](CCC(N)=O)C(=O)N[C@@H](CCCCN)C(=O)N[C@@H](CCCCN)C(=O)N[C@@H](CC(C)C)C(=O)N[C@@H](CCCNC(=N)N)C(=O)N[C@@H](CO)C(=O)N[C@@H](C)C(=O)N[C@H](C(=O)N[C@@H](CC(=O)O)C(=O)N[C@@H](CCCCN)C(=O)N[C@@H](Cc1ccc(O)cc1)C(=O)N[C@@H](CCCNC(=N)N)C(=O)N[C@@H](CC(C)C)C(=O)N[C@@H](Cc1c[nH]cn1)C(N)=O)[C@@H](C)O [Compound 40] (Palmitoyl-GGYQKKLRSATDKYRLH-NH2; C-terminus assumed),78.7%
7,CCCCCCCCCCCCCCCC(=O)NCC(=O)NCC(=O)N[C@@H](Cc1ccc(O)cc1)C(=O)N[C@@H](CCC(N)=O)C(=O)N[C@@H](CCCCN)C(=O)N[C@@H](CCCCN)C(=O)N[C@@H](CC(C)C)C(=O)N[C@@H](CCCNC(=N)N)C(=O)N1C[C@H](O)C[C@H]1C(=O)N[C@@H](Cc1c[nH]cn1)C(=O)N[C@H](C(=O)N[C@@H](CC(=O)O)C(=O)N[C@@H](CCCCN)C(=O)N[C@@H](Cc1ccc(O)cc1)C(=O)N[C@@H](CCCNC(=N)N)C(=O)N[C@@H](CC(C)C)C(N)=O)[C@@H](C)O [Compound 35] (Palmitoyl-GGYQKKLR[Hyp]HTDKYRL-NH2; C-terminus assumed),89.4%
